This note sets out measurements from US20240336577A1, “PYRAZINE COMPOUND, AND METHOD OF PREPARATION AND USE THEREOF” (SHENZHEN OLIVE BIOPHARMACEUTICALS CO., LTD, priority 2020, published 2024).

Experiment [1] deals with db/db mice. Description: Glucose and lipid metabolism in db/db mice, 56 d administration. The conditions noted are these: once/d 56 d, TMP 5.0 mg/kg, mean±SEM, n=6; for Creatinine / Total cholesterol / Triglyceride / Urea: Losartan 10 mg/kg; for Creatinine / Total cholesterol / Triglyceride / Urea / Glucose determination / High-density lipoprotein cholesterol / Low-density lipoprotein cholesterol: OLB-1/OLB-2 13.32 mg/kg; for Glycated hemoglobin / Glucose determination / High-density lipoprotein cholesterol / Low-density lipoprotein cholesterol: metformin 225 mg/kg/d; for Glycated hemoglobin: OLB-1/OLB-2 13.32 mg/kg (0.037 mmol/kg). The format is in vivo. As for the experimental part:
Mice of a normal control group and model mice were given normal saline 10 ml/kg/d, metformin hydrochloride enteric-coated tablets 225 mg/kg/d, Losartan 10 mg/kg, TMP (5.0 mg/kg, 0.037 mmol/kg), and OLB-1 and OLB-2 (13.32 mg/kg, 0.037 mmol/kg), at a volume of 10 mL/kg, once/d, for continuous administration of 56 d, blood lipids and blood glucose related indexes were measured after blood collection. Data were presented as mean±SEM; n=6 per group. One-way ANOVA and multiple range test were adopted to show differences between the two groups. a, p<0.05 vs. db/db group; c, p<0.001 vs. db/db group.

In experiment [2] the test system is db/db mice. Description: Biochemical and metabolic indicators in db/db mice, 90 d administration. The format is in vivo. The conditions noted are these: once/d 90 d, Losartan 15 mg/kg/d, TMP 5.0 mg/kg, OLB-1 2.31 mg/kg, OLB-2 2.3 mg/kg, mean±SEM, n=6.
In experiment [3] the test system is SH—SY5Y neuroblastoma cells. In words: LPS-induced inflammatory factors and oxidative stress-related proteins, ELISA kit. The following applies: 1 μg/mL LPS 24 h, mean±SEM, n=8; for TNF-alpha: differentiated SH-SY5Y, supernatant. The format is cell-based. As for the experimental part: The SH—SY5Y cells were recovered and cultured, and the cells in the logarithmic growth phase were taken. After 24 h of incubation, SH—SY5Y neuroblastoma cells were treated with 1 μM all-trans retinoic acid to induce differentiation, and then inoculated into a 6-well culture dish for 24 h of incubation. The medium was treated with chemicals feed at 0.2 μM (L) or 1 μM (H) and 1 μg/mL LPS for 24 h, a supernatant medium was aspirated, and changes of inflammatory factors and oxidative stress-related proteins were measured by an ELISA kit. Data were presented as mean±SEM; n=8 per group. One-way ANOVA and multiple range test were adopted to show differences between the two groups. a, p<0.05 vs. LPS group; b, p<0.01 vs. LPS group; c, p<0.001 vs. LPS group.
Background: An ELISA detects its analyte on a solid surface through an enzyme-linked reagent.

Experiment [4] deals with 6-OHDA Parkinson's disease rats. Description: APO-induced rotations in 6-OHDA Parkinson's disease rats. The format is in vivo. The following applies: APO-induced 6-OHDA rats, 2 weeks of treatment; different dosages of OLB-1, OLB-2; levodopa 25 mg/kg; FIG. 8. The text has this:
There is no rotation in a sham-operated group, and there is no significant difference between the groups injected with 6-OHDA, and there are about 180 rotations. […] Data were presented as mean±SEM; n=9-10 per group. One-way ANOVA and multiple range test were adopted to show differences between the two groups. *p<0.05, **p<0.01 vs. before 6-OHDA group.

Experiment [5] relates to ALS (SOD-G93A) transgenic mice. In words: Pole climbing test in ALS transgenic mice. The format is in vivo. The conditions noted are these: different dosages of OLB-1, OLB-2, riluzole 5 mg/kg, FIG. 6. The text has this: The pole climbing test is generally used to evaluate a motor coordination ability and motor delay of the limbs in mice. A homemade wooden pole about 50 cm long and about 1 cm in diameter was wrapped with medical gauze to increase friction of the wooden pole. The wooden pole was put vertically on a horizontal table, the mouse tail was grabbed such that the mouse head was facing down, with limbs grabbing a top of the pole; after releasing the mouse tail, timing was started, and it was ensured that the mouse crawled downward without external force, and the time was recorded for the mouse to climb from the top of the pole to a bottom platform (a standard was that mouse hind limbs were landed on the ground). […] An average of the three pole climbing times of mice was calculated as a final pole climbing time. […] Data were presented as mean±SEM; n=10 per group. One-way ANOVA and multiple range test were adopted to show differences between the two groups. ***p<0.001 vs. WT (normal control) group; #p<0.05, ##p<0.01 vs. ALS (SOD-G93A) group.

For experiment [6], the system named is ALS (SOD-G93A) transgenic mice. Description: Limb grip force test in ALS transgenic mice. The format is in vivo. The conditions noted are these: different dosages of OLB-1, OLB-2, riluzole 5 mg/kg, FIG. 7. How it is done: The limb grip force test is used directly to assess muscle strength in mice. […] After the start of administration, the grip force of the mice was tested every two weeks, and the measurement was repeated three times for each mouse, and the maximum among the three results was taken as a maximum grip force of the mice. […] Data were presented as mean±SEM; n=10 per group. One-way ANOVA and multiple range test show differences between the two groups. **p<0.01, ***p<0.001 vs. WT (normal control) group; #p<0.05, ##p<0.01 vs. ALS (SOD-G93A) group.

SMILES strings stand for the structures.

As for `CCCCc1nc(Cl)c(CO)n1Cc1ccc(-c2ccccc2-c2nn[nH]n2)cc1` [Losartan, reference compound], in the experiment on db/db mice [1], the Creatinine was 42.12 ± 1.72(c) μmol/L, the Total cholesterol is 6.76 ± 0.46(c) mM, the Triglyceride is reported as 9.68 ± 0.37(c) mg/dL and the Urea is 7.23 ± 0.51(c) mmol/L. In the experiment on db/db mice [2], the Creatinine is 42.12 ± 1.72(c) μmol/L, the Urea is given as 7.23 ± 0.51(c) mmol/L and the Urine albumin/creatinine was 522.59 ± 103.42(c) mg/g.

In experiment [3] (compound 0.2 μM (L)), `Cc1nc(C)c(C)nc1C` [TMP, tetramethylpyrazine, reference compound] yielded a GSH-Px of 5.96 ± 0.74 µmol/mg, an IL1 of 13.26 ± 1.31 pg/mL, an IL6 of 14.12 ± 1.46 pg/mL and an MDA of 23.34 ± 1.71 nmol/mg. Moreover, in experiment [3] (compound 0.2 μM (L)), the SOD was 9.57 ± 0.61 nU/ml and the TNF-alpha came out at 12.22 ± 1.28 pg/mL. In experiment [3] (compound 1 μM (H)), this compound showed a GSH-Px of 6.90 ± 0.87 µmol/mg, an IL1 of 13.53 ± 1.74 pg/mL, an IL6 of 12.69 ± 1.85 pg/mL and an MDA of 22.94 ± 1.33 nmol/mg. In experiment [3] (compound 1 μM (H)), the SOD stood at 8.93 ± 0.47 nU/ml and the TNF-alpha turned out to be 12.64 ± 1.70 pg/mL. Besides, in the experiment with db/db mice [1], the Creatinine came out at 52.5 ± 3.76 µmol/L, the Total cholesterol is 10.96 ± 1.38 ^ mM, the Triglyceride is reported as 12.83 ± 1.37 ^ mg/dL and the Urea was 11.55 ± 0.59 ^ mmol/L. Further, in the experiment on db/db mice [1], the Glycated hemoglobin was 917.31 ± 57.43 ^ nmol/L, the Glucose determination was 37.94 ± 3.11 ^ mM, the High-density lipoprotein cholesterol is 2.49 ± 0.16 ^ mM and the Low-density lipoprotein cholesterol is given as 0.68 ± 0.04 ^ mM. In addition, in the experiment on db/db mice [2], the Creatinine was found to be 52.5 ± 3.76 µmol/L, the Urea was 11.55 ± 0.59 ^ mmol/L and the Urine albumin/creatinine is 687.35 ± 79.04 ^ mg/g.

Turning to `N[C@@H](Cc1ccc(O)c(O)c1)C(=O)O` [levodopa, reference compound], in experiment [4], the number of rotations result was “effectively reduce the number of rotations”.

As to `CN(C)C(=N)N=C(N)N` [metformin, reference compound], in the experiment on db/db mice [1], the Glycated hemoglobin is given as 628.52 ± 50.59(c) nmol/L, the Glucose determination was 24.01 ± 2.38(c) mM, the High-density lipoprotein cholesterol was 2.19 ± 0.12(a) mM and the Low-density lipoprotein cholesterol is recorded as 0.59 ± 0.02(c) mM.

Regarding `Nc1nc2ccc(OC(F)(F)F)cc2s1` [riluzole, reference compound], the “pole climbing time / symptoms of bradykinesia” value in experiment [5] is listed as “significantly improve the symptoms of bradykinesia”. In experiment [6], the limb grip force entry was “effectively increase the limb force”.
